Earlier results, collected in article PMC5063953 (Biochemical Pharmacology, 2016).

Test system: hGIPR
Conditions: R5.40A; ref [71]; cited from earlier work

## glucose-dependent insulinotropic peptide (YAEGTFISDYSIAMDKIHQQDFVNWLLAQKGKKNDWKHNITQ; Gastric inhibitory polypeptide; UniProt P09681 52-93, looked up) [GIP]
  Effect compared with WT: cAMP production: Reduced GIP mediated cAMP production.
